Experimental data from the supplement of paper PMC11061612.

Columns and labels:
Carboplatin = compound: C1CC(C1)(C(=O)[O-])C(=O)[O-].N.N.[Pt+2] [Carboplatin]; conditions: max 10 µM
Summary of the method: (§1)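 Cancer cell lines were dosed for 72 hours (final DMSO typically 0.2%) after 24 hours at 37°C and 5% CO2 in 1536-well plates containing 7.5 μl DMEM/F12 or RPMI with 10% FBS. Viability came from CellTiter-Glo 2.0 luminescence, scaled between blank-well and DMSO-well means, and dose responses were fitted to a two-parameter logistic curve with a non-linear mixed effects model. The single-agent IC50 was obtained from this fit.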

AZD5363 = compound: C1CN(CCC1(C(=O)N[C@@H](CCO)C2=CC=C(C=C2)Cl)N)C3=NC=NC4=C3C=CN4 [AZD5363]; conditions: max 10 µM
Summary of the method: as §1

AZD1775 = compound: C=CCn1c(=O)c2cnc(Nc3ccc(N4CCN(C)CC4)cc3)nc2n1-c1cccc(C(C)(C)O)n1 [AZD1775]; conditions: max 3 µM
Summary of the method: as §1

Trametinib = compound: CC(=O)Nc1cccc(-n2c(=O)n(C3CC3)c(=O)c3c(Nc4ccc(I)cc4F)n(C)c(=O)c(C)c32)c1 [Trametinib]; conditions: max 1 µM
Summary of the method: as §1

Paclitaxel = compound: CC(=O)O[C@H]1C(=O)[C@@]2(C)[C@H]([C@H](OC(=O)c3ccccc3)[C@]3(O)C[C@H](OC(=O)[C@H](O)[C@@H](NC(=O)c4ccccc4)c4ccccc4)C(C)=C1C3(C)C)[C@]1(OC(C)=O)CO[C@@H]1C[C@@H]2O [Paclitaxel]; conditions: max 3 µM
Summary of the method: as §1

Palbociclib = compound: CC(=O)c1c(C)c2cnc(Nc3ccc(N4CCNCC4)cn3)nc2n(C2CCCC2)c1=O [Palbociclib]; conditions: max 10 µM
Summary of the method: as §1

AZD1390 = compound: CC(C)n1c(=O)n(C)c2cnc3cc(F)c(-c4ccc(OCCCN5CCCCC5)nc4)cc3c21 [AZD1390]; conditions: max 0.3 µM
Summary of the method: as §1

Venetoclax = compound: CC1(C)CCC(CN2CCN(c3ccc(C(=O)NS(=O)(=O)c4ccc(NCC5CCOCC5)c([N+](=O)[O-])c4)c(Oc4cnc5[nH]ccc5c4)c3)CC2)=C(c2ccc(Cl)cc2)C1 [Venetoclax]; conditions: max 1 µM
Summary of the method: as §1

Dasatinib = compound: CC1=C(C(=CC=C1)Cl)NC(=O)C2=CN=C(S2)NC3=CC(=NC(=N3)C)N4CCN(CC4)CCO [Dasatinib]; conditions: max 2 µM
Summary of the method: as §1

SG3199 = compound: CC1=CN2[C@@H](C1)C=NC3=CC(=C(C=C3C2=O)OC)OCCCCCOC4=C(C=C5C(=C4)N=C[C@@H]6CC(=CN6C5=O)C)OC [SG3199]; conditions: max 0.001 µM
Summary of the method: as §1

AZD2811 = compound: CCN(CCO)CCCOc1ccc2c(Nc3cc(CC(=O)Nc4cccc(F)c4)[nH]n3)ncnc2c1 [AZD2811]; conditions: max 1 µM
Summary of the method: as §1

SN-38 = compound: CCc1c2c(nc3ccc(O)cc13)-c1cc3c(c(=O)n1C2)COC(=O)[C@]3(O)CC [SN-38]; conditions: max 0.3 µM
Summary of the method: as §1

AZD0156 = compound: CN(C)CCCOc1ccc(-c2ccc3ncc4c(c3c2)n(C2CCOCC2)c(=O)n4C)cn1 [AZD0156]; conditions: max 3 µM
Summary of the method: as §1

AZD4320 = compound: CN(CC[C@H](CSC1=CC=CC=C1)NC2=C(C=C(C=C2)S(=O)(=O)NC(=O)C3=CC=C(C=C3)N4CCC(CC4)[C@H](C5=CC=CC=C5C6=CC=C(C=C6)Cl)O)S(=O)(=O)C(F)(F)F)CCO [AZD4320]; conditions: max 1 µM
Summary of the method: as §1

Alisertib = compound: COc1cc(Nc2ncc3c(n2)-c2ccc(Cl)cc2C(c2c(F)cccc2OC)=NC3)ccc1C(=O)O [Alisertib]; conditions: max 10 µM
Summary of the method: as §1

Etoposide = compound: COc1cc([C@@H]2c3cc4c(cc3[C@@H](O[C@@H]3O[C@@H]5CO[C@@H](C)O[C@H]5[C@H](O)[C@H]3O)[C@H]3COC(=O)[C@H]23)OCO4)cc(OC)c1O [Etoposide]; conditions: max 10 µM
Summary of the method: as §1

Gefitinib = compound: COc1cc2ncnc(Nc3ccc(F)c(Cl)c3)c2cc1OCCCN1CCOCC1 [Gefitinib]; conditions: max 10 µM
Summary of the method: as §1

Prexasertib = compound: COc1cccc(OCCCN)c1-c1cc(Nc2cnc(C#N)cn2)n[nH]1 [Prexasertib]; conditions: max 1 µM
Summary of the method: as §1

Doxorubicin = compound: COc1cccc2c1C(=O)c1c(O)c3c(c(O)c1C2=O)C[C@@](O)(C(=O)CO)C[C@@H]3O[C@H]1C[C@H](N)[C@H](O)[C@H](C)O1 [Doxorubicin]; conditions: max 1 µM
Summary of the method: as §1

AZD5153 = compound: COc1nnc2ccc(N3CCC(c4ccc(OCCN5CCN(C)C(=O)[C@H]5C)cc4)CC3)nn12 [AZD5153]; conditions: max 1 µM
Summary of the method: as §1

Lapatinib = compound: CS(=O)(=O)CCNCc1ccc(-c2ccc3ncnc(Nc4ccc(OCc5cccc(F)c5)c(Cl)c4)c3c2)o1 [Lapatinib]; conditions: max 10 µM
Summary of the method: as §1

AZD8186 = compound: C[C@@H](Nc1cc(F)cc(F)c1)c1cc(C(=O)N(C)C)cc2c(=O)cc(N3CCOCC3)oc12 [AZD8186]; conditions: max 10 µM
Summary of the method: as §1

Crizotinib = compound: C[C@@H](Oc1cc(-c2cnn(C3CCNCC3)c2)cnc1N)c1c(Cl)ccc(F)c1Cl [Crizotinib]; conditions: max 10 µM
Summary of the method: as §1

Savolitinib = compound: C[C@@H](c1ccc2nccn2c1)n1nnc2ncc(-c3cnn(C)c3)nc21 [Savolitinib]; conditions: max 1 µM
Summary of the method: as §1

AZD6738 = compound: C[C@@H]1COCCN1C2=NC(=NC(=C2)C3(CC3)[S@](=N)(=O)C)C4=C5C=CNC5=NC=C4 [AZD6738]; conditions: max 10 µM
Summary of the method: as §1

AZD5991 = compound: Cc1c2c(nn1C)CSCc1cc(n(C)n1)CSc1cc(c3ccccc3c1)OCCCc1c(C(=O)O)n(C)c3c-2c(Cl)ccc13 [AZD5991]; conditions: max 1 µM
Summary of the method: as §1

AZD7648 = compound: Cc1cc2ncnn2cc1Nc1ncc2c(n1)n(C1CCOCC1)c(=O)n2C [AZD7648]; conditions: max 10 µM
Summary of the method: as §1

Taselisib = compound: Cc1nc(-c2cn3c(n2)-c2ccc(-c4cnn(C(C)(C)C(N)=O)c4)cc2OCC3)n(C(C)C)n1 [Taselisib]; conditions: max 10 µM
Summary of the method: as §1

Selumetinib = compound: Cn1cnc2c(F)c(Nc3ccc(Br)cc3Cl)c(C(=O)NOCCO)cc21 [Selumetinib]; conditions: max 10 µM
Summary of the method: as §1

SRA737 = compound: N#Cc1cnc(Nc2cc(NC[C@H]3CNCCO3)c(C(F)(F)F)cn2)cn1 [SRA737]; conditions: max 10 µM
Summary of the method: as §1

MK-2206 = compound: NC1(c2ccc(-c3nc4ccn5c(=O)[nH]nc5c4cc3-c3ccccc3)cc2)CCC1 [MK-2206]; conditions: max 10 µM
Summary of the method: as §1

Gemcitabine = compound: Nc1ccn([C@@H]2O[C@H](CO)[C@@H](O)C2(F)F)c(=O)n1 [Gemcitabine]; conditions: max 0.3 µM
Summary of the method: as §1

[1] = compound: O=C(Nc1ccc2[nH]nc(-c3ccncc3)c2c1)[C@@H]1CCN(CC(=O)N2CCN(c3ccc(-c4ncccn4)cc3)CC2)C1; conditions: max 5 µM
Summary of the method: as §1

Olaparib = compound: O=C(c1cc(Cc2n[nH]c(=O)c3ccccc23)ccc1F)N1CCN(C(=O)C2CC2)CC1 [Olaparib]; conditions: max 10 µM
Summary of the method: as §1

5-Fluorouracil = compound: O=c1[nH]cc(F)c(=O)[nH]1 [5-Fluorouracil]; conditions: max 20 µM
Summary of the method: as §1

Cell Line | IC50, cell viability 72 h (Carboplatin) [nM] | IC50, cell viability 72 h (AZD5363) [nM] | IC50, cell viability 72 h (AZD1775) [nM] | IC50, cell viability 72 h (Trametinib) [nM] | IC50, cell viability 72 h (Paclitaxel) [nM] | IC50, cell viability 72 h (Palbociclib) [nM] | IC50, cell viability 72 h (AZD1390) [nM] | IC50, cell viability 72 h (Venetoclax) [nM] | IC50, cell viability 72 h (Dasatinib) [nM] | IC50, cell viability 72 h (SG3199) [nM] | IC50, cell viability 72 h (AZD2811) [nM] | IC50, cell viability 72 h (SN-38) [nM] | IC50, cell viability 72 h (AZD0156) [nM] | IC50, cell viability 72 h (AZD4320) [nM] | IC50, cell viability 72 h (Alisertib) [nM] | IC50, cell viability 72 h (Etoposide) [nM] | IC50, cell viability 72 h (Gefitinib) [nM] | IC50, cell viability 72 h (Prexasertib) [nM] | IC50, cell viability 72 h (Doxorubicin) [nM] | IC50, cell viability 72 h (AZD5153) [nM] | IC50, cell viability 72 h (Lapatinib) [nM] | IC50, cell viability 72 h (AZD8186) [nM] | IC50, cell viability 72 h (Crizotinib) [nM] | IC50, cell viability 72 h (Savolitinib) [nM] | IC50, cell viability 72 h (AZD6738) [nM] | IC50, cell viability 72 h (AZD5991) [nM] | IC50, cell viability 72 h (AZD7648) [nM] | IC50, cell viability 72 h (Taselisib) [nM] | IC50, cell viability 72 h (Selumetinib) [nM] | IC50, cell viability 72 h (SRA737) [nM] | IC50, cell viability 72 h (MK-2206) [nM] | IC50, cell viability 72 h (Gemcitabine) [nM] | IC50, cell viability 72 h [1] [nM] | IC50, cell viability 72 h (Olaparib) [nM] | IC50, cell viability 72 h (5-Fluorouracil) [nM]
ES1 (Ewing's Sarcoma) | > 10000 | > 10000 | 784 | > 1000 | < 3 | 2170 | > 300 | > 1000 | > 2000 | > 1 | 510 | 3.1 | > 3000 | > 1000 | 2370 | 335 | > 10000 | 13.5 | 101 | 604 | > 10000 | 8670 | 2480 | > 1000 | 1730 | 435 | > 10000 | 1050 | > 10000 | 2000 | 3970 | 2.61 | > 5000 | 4470 | 9220
BFTC-905 (Bladder Carcinoma) | > 10000 | > 10000 | 680 | 86.4 | 6.02 | > 10000 | > 300 | > 1000 | 1530 | > 1 | > 1000 | 4.55 | > 3000 | > 1000 | 1250 | 1160 | > 10000 | 117 | 196 | 173 | > 10000 | > 10000 | 5240 | > 1000 | 3790 | > 1000 | > 10000 | 1390 | 6560 | > 10000 | > 10000 | 10.7 | 1050 | > 10000 | > 20000
SW1417 (Colorectal Carcinoma) | > 10000 | > 10000 | > 3000 | 51.5 | 422 | > 10000 | > 300 | > 1000 | > 2000 | > 1 | > 1000 | 182 | > 3000 | > 1000 | > 10000 | > 10000 | > 10000 | 567 | > 1000 | > 1000 | > 10000 | > 10000 | > 10000 | > 1000 | > 10000 | > 1000 | > 10000 | > 10000 | 4870 | > 10000 | > 10000 | > 300 | 1350 | > 10000 | > 20000
